Data from patent US20240158386A1, “BENZOXAZOLONE INHIBITORS OF INFLAMMASOMES” (ICAHN SCHOOL OF MEDICINE AT MOUNT SINAI, priority 2021, published 2024).

Target: T1, NLRC4 inflammasome (Mus musculus, UniProt Q3UP24)
T1 construct: endogenous in cells; host or cells: primary microglia from NLRP3 KO mice
Assay: NLRC4 inflammasome activation assay: IL-1β release, microglia from NLRP3 KO mice, LPS and flagellin
Type: cell-based
Conditions: FIG. 3A
Procedure: AIM2, NLRP7, and NLRC4 inflammasomes activation assays. […] AIM2 inflammasome activation was induced through the addition of 100 ng/ml LPS for 2 hours, followed by transfection of 1 μg poly(dA:dT) using Lipofectamine 2000 during 2 hours, following the manufacturer recommendations. NLRC4 was activated by treatment with 150 ng/ml LPS for 2 hours, before transfection of 1 μg flagellin during 2 hours, using lipofectamine 2000 as transfection reagent. Negative and positive controls were pre-treated with the same DMSO percentage as cells treated with the inhibitors. Negative controls were kept untreated after DMSO addition, while LPS-poly(dA:dT) or LPS-flagellin was added to positive controls for AIM2, and NLRC4 activation, respectively. For activation of the NLRP7 inflammasome different conditions were assessed: treatment of WT microglia cultures with 400 ng/ml fibroblast-stimulating lipopeptide-1 (fsl-1) for 7 hours, priming with 150 ng/ml LPS for 1 hour and treatment with 400 ng/ml fsl-1 for 7 hours, and priming with 150 ng/ml LPS and transfection of 400 ng/ml fsl-1 with lipofectamine. MCC950 was used as a negative control for NLRC4 and AIM-2 inhibition. Cells were pretreated with 5 μM MCC950 before LPS addition, and 2 hours later the NLRC4 and AIM-2 activation was induced through addition of their specific activators. Cell supernatants were collected for IL-1β measurement.
Cytokine quantification. IL-1β in cell supernatants and brain tissue samples—after the different treatment groups—was quantified using the Mouse IL-1 beta/IL-1F2 DuoSet ELISA kit (R&D systems), IL-6 in cell culture supernatant was measured through the Mouse IL-6 ELISA kit (ThermoFisher), TNF-α in cell culture supernatants was determined using the Mouse TNF-alpha DuoSet ELISA (R*D systems), and IL-18 in brain tissue was measured through the IL-18 Mouse ELISA Kit (Invitrogen) following the manufacturers' recommended protocol. IL-1β precursor and cleaved IL-1β in the FC of mice treated with vehicles, LPS, or C77-LPS was assessed by western blot. All samples were run in technical duplicates.

T1 sequence (Q3UP24 whole entry): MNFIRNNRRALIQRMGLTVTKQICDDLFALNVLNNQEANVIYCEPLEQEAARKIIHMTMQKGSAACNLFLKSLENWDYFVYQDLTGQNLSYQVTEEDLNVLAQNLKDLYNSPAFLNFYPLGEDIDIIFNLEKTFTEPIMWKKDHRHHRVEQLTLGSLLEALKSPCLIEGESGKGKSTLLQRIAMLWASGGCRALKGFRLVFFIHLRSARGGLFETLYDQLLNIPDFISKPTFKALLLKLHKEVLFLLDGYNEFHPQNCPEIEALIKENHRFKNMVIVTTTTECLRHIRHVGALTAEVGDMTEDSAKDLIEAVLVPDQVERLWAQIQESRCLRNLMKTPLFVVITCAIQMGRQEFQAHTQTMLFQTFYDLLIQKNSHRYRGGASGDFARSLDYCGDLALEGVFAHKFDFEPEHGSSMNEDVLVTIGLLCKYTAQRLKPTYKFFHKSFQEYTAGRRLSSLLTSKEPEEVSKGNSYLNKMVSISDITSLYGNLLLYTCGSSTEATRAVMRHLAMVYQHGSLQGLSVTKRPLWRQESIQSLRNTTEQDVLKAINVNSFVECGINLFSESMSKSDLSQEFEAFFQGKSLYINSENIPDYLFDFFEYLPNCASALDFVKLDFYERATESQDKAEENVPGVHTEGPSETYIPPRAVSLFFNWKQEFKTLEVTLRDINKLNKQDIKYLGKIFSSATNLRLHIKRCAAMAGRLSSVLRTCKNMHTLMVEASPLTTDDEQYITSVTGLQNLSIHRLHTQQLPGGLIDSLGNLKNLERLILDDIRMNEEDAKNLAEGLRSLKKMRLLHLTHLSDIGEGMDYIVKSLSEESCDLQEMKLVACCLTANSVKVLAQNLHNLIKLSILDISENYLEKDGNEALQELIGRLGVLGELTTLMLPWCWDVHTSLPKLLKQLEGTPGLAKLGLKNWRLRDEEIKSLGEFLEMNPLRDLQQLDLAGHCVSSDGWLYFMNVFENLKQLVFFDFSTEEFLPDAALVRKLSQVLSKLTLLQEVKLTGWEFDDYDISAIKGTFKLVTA

- IC50: 4.15 ± 1.65 µM
SMILES: O=C(Cn1c(=O)oc2ccccc21)NCc1cncc(-c2ccsc2)c1 [Compound C77]
